Data: ChEMBL document CHEMBL1130676, “Aryl ketones as novel replacements for the C-terminal amide bond of succinyl hydroxamate MMP inhibitors” (Bioorg Med Chem Lett, 1998)

Columns and labels:
Interstitial collagenase = biological target: T1, Interstitial collagenase (Homo sapiens, UniProt P03956); test: In vitro inhibitory activity against matrix metalloprotease 1 isolated from the culture medium of human skin fibroblasts induced with PMA
T1 sequence (P03956 whole entry): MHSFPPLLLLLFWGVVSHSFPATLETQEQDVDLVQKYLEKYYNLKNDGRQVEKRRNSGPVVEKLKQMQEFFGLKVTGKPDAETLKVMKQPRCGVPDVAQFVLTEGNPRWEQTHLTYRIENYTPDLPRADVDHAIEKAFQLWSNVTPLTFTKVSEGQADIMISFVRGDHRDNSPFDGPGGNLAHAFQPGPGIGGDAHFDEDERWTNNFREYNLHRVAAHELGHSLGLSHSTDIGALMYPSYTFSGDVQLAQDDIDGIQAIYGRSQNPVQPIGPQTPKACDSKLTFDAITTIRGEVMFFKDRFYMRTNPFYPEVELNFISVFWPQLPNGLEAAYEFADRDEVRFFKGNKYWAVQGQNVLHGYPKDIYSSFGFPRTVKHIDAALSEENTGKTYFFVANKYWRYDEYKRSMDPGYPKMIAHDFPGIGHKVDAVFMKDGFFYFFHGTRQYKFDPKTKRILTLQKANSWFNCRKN

[1] = biological target: T2, 72 kDa type IV collagenase (Homo sapiens, UniProt P08253); test: In vitro inhibitory activity against matrix metalloprotease 2 isolated from human HT1080 fibrosarcoma cells induced with TNF
T2 sequence (P08253 whole entry): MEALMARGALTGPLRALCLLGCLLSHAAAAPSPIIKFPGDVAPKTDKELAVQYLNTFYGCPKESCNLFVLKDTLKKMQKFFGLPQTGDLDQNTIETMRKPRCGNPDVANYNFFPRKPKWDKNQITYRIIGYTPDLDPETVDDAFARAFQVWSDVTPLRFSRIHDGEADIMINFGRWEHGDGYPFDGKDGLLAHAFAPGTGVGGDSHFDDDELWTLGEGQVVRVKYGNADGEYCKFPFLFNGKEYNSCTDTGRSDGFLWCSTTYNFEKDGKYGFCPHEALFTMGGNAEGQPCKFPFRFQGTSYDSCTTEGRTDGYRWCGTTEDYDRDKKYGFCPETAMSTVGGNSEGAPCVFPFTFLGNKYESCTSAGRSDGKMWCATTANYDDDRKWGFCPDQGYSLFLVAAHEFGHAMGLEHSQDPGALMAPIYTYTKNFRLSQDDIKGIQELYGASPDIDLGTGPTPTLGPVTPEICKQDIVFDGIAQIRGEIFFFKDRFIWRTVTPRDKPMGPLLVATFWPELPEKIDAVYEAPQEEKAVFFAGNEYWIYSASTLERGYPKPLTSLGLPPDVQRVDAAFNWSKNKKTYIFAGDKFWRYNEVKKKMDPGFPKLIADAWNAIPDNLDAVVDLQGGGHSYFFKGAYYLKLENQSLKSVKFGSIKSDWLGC

Stromelysin-1 [2] = biological target: T3, Stromelysin-1 (Homo sapiens, UniProt P08254); test: In vitro inhibitory activity against human recombinant matrix metalloprotease 3
T3 sequence (P08254 whole entry): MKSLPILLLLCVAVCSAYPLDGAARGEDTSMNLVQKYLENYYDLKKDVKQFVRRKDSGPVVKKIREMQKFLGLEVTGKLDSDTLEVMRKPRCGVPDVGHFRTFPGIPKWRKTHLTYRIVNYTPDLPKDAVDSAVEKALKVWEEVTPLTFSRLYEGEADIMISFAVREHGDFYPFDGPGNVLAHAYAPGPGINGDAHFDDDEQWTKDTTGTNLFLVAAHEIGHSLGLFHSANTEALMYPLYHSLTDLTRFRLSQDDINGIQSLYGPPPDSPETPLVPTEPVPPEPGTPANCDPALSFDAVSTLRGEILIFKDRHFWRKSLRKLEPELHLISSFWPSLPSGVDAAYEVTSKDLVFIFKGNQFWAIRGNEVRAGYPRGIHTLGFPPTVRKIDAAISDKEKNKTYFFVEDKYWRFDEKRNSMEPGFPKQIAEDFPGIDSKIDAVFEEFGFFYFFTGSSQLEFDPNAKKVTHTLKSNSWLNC

Matrilysin = biological target: T4, Matrilysin (Homo sapiens, UniProt P09237); test: In vitro inhibitory activity against human recombinant matrix metalloprotease 7
T4 sequence (P09237 whole entry): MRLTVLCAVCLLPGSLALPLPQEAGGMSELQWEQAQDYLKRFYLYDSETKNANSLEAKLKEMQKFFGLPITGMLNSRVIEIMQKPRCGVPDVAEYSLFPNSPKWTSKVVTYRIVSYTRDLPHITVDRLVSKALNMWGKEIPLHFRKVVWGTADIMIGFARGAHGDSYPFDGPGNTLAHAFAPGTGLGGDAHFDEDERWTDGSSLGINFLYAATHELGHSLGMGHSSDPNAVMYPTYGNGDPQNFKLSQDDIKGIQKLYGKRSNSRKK

[3] = Oral bioavailability in monkey (dose 10 mg/kg); assay type: ADME, organism-based; conditions: primates, in vivo
[4] = Half life was measured in monkey at dose of 10 mg/kg by po administration; assay type: ADME, organism-based; parameters: dose 10 mg/kg, route oral; conditions: primates, in vivo
[5] = biological target: T2, 72 kDa type IV collagenase; test: Inhibition of matrix metalloprotease 2 (MMP2) of human HT1080 fibrosarcoma cells induced with TNF
Stromelysin-1 [6] = biological target: T3, Stromelysin-1; test: Inhibition of human recombinant matrix metalloprotease 3 (MMP3)
[7] = Bioavailability in rat after po administration of 30 mg/kg dose; assay type: ADME, organism-based; conditions: in vivo
[8] = Half life was measured in rat at dose of 30 mg/kg by iv administration; assay type: ADME, organism-based; parameters: dose 30 mg/kg, route intravenous; conditions: in vivo
[9] = Bioavailability in monkey after po administration of 10 mg/kg dose; assay type: ADME, organism-based; conditions: primates, in vivo
[10] = Half life was measured in rat at dose of 30 mg/kg by po administration; assay type: ADME, organism-based; parameters: dose 30 mg/kg, route oral; conditions: in vivo

CC(C)C[C@H]1C(=O)N[C@H](C(=O)c2ccc(S(C)(=O)=O)cc2)Cc2ccc(cc2)OCCCC[C@@H]1C(=O)NO
IC50 (Interstitial collagenase): 60 nM | IC50 [1]: 8.5 nM | IC50 (Stromelysin-1 [2]): 9.8 nM | IC50 (Matrilysin): 5.7 nM

CC(C)C[C@H]1C(=O)N[C@H](C(=O)c2ccccc2)Cc2ccc(cc2)OCCCCC[C@@H]1C(=O)NO
IC50 (Interstitial collagenase): 9.1 nM | IC50 [1]: 3.9 nM | IC50 (Matrilysin): 2.2 nM

CC(C)C[C@H]1C(=O)N[C@H](C(=O)c2ccc[nH]2)Cc2ccc(cc2)OCCCC[C@@H]1C(=O)NO
IC50 (Interstitial collagenase): 1.9 nM | IC50 [1]: 7.2 nM | IC50 (Stromelysin-1 [2]): 7.2 nM | IC50 (Matrilysin): 4.2 nM

CC(C)C[C@H](CC(=O)NO)C(=O)N[C@@H](Cc1ccccc1)C(=O)c1c[nH]c2ccccc12
IC50 (Interstitial collagenase): 5.1 nM | IC50 [1]: 1 nM | IC50 (Matrilysin): 4.3 nM

CC(C)C[C@H]1C(=O)N[C@H](C(=O)c2ccc(C(C)(C)C)cc2)Cc2ccc(cc2)OCCCC[C@@H]1C(=O)NO
IC50 (Interstitial collagenase): 270 nM | IC50 [1]: 91 nM | IC50 (Stromelysin-1 [2]): 110 nM | IC50 (Matrilysin): 40 nM

CC(C)C[C@H]1C(=O)N[C@H](C(=O)c2c[nH]c3ccccc23)Cc2ccc(cc2)OCCCCC[C@@H]1C(=O)NO
IC50 (Interstitial collagenase): 4.8 nM | IC50 [1]: 6.1 nM | IC50 (Stromelysin-1 [2]): 5.1 nM | IC50 (Matrilysin): 3.1 nM

CC(C)C[C@H]1C(=O)N[C@H](C(=O)c2ccccc2)Cc2ccc(cc2)OCCCC[C@@H]1C(=O)NO
bioavailability [3]: 33% | half-life [4]: 15 h | IC50 (Interstitial collagenase): 13 nM | IC50 [1]: 9.5 nM | IC50 (Stromelysin-1 [2]): 8.9 nM | IC50 (Matrilysin): 3.3 nM

CC(C)C[C@H]1C(=O)N[C@H](C(=O)c2ccc(CO)cc2)Cc2ccc(cc2)OCCCC[C@@H]1C(=O)NO
IC50 (Interstitial collagenase): 5 nM | IC50 [1]: 5.1 nM | IC50 (Stromelysin-1 [2]): 3.4 nM | IC50 (Matrilysin): 1.5 nM

CNC(=O)[C@@H]1Cc2ccc(cc2)OCCCC[C@H](C(=O)NO)[C@@H](CC(C)C)C(=O)N1
IC50 [1]: 5.6 nM | IC50 (Stromelysin-1 [2]): 4 nM

CNC(=O)[C@@H]1Cc2ccc(cc2)OCCCCC[C@H](C(=O)NO)[C@@H](CC(C)C)C(=O)N1
IC50 (Stromelysin-1 [2]): 2.6 nM | IC50 (Matrilysin): 6.1 nM

C=CCC(C(=O)NO)C(CC(C)C)C(=O)N[C@@H](Cc1ccccc1)C(=O)c1nc2ccccc2[nH]1 (single isomer, unassigned)
IC50 (Interstitial collagenase): 180 nM | IC50 [1]: 110 nM | IC50 (Stromelysin-1 [2]): 54 nM | IC50 (Matrilysin): 68 nM

C=CCC(C(=O)NO)C(CC(C)C)C(=O)N[C@@H](Cc1ccccc1)C(=O)c1cccnc1 (single isomer, unassigned)
IC50 (Interstitial collagenase): 14 nM | IC50 [1]: 8.6 nM | IC50 (Stromelysin-1 [2]): 10 nM | IC50 (Matrilysin): 8.6 nM

C=CCC(C(=O)NO)C(CC(C)C)C(=O)N[C@@H](Cc1ccccc1)C(=O)CC (single isomer, unassigned)
IC50 (Interstitial collagenase): 40 nM | IC50 [1]: 33 nM | IC50 (Stromelysin-1 [2]): 82 nM | IC50 (Matrilysin): 39 nM

C=CCC(C(=O)NO)C(CC(C)C)C(=O)N[C@@H](Cc1ccccc1)C(=O)c1nccs1 (single isomer, unassigned)
IC50 [5]: 1100 nM | IC50 (Stromelysin-1 [6]): 360 nM | IC50 (Matrilysin): 220 nM

C=CCC(C(=O)NO)C(CC(C)C)C(=O)N[C@@H](Cc1ccccc1)C(C)=O (single isomer, unassigned)
IC50 [1]: 22 nM | IC50 (Matrilysin): 45 nM

C=CCC(C(=O)NO)C(CC(C)C)C(=O)N[C@@H](Cc1ccccc1)C(=O)c1cn(C)c2ccccc12 (single isomer, unassigned)
IC50 (Interstitial collagenase): 4.7 nM | IC50 [1]: 23 nM | IC50 (Stromelysin-1 [2]): 36 nM | IC50 (Matrilysin): 29 nM

C=CCC(C(=O)NO)C(CC(C)C)C(=O)N[C@@H](Cc1ccccc1)C(=O)c1ccccc1 (single isomer, unassigned)
IC50 (Interstitial collagenase): 10 nM | IC50 [1]: 3.4 nM | IC50 (Matrilysin): 3.6 nM

C=CCC(C(=O)NO)C(CC(C)C)C(=O)N[C@H](C(=O)c1c[nH]c2ccccc12)C(C)(C)C (single isomer, unassigned)
IC50 (Interstitial collagenase): 1.2 nM | IC50 [1]: 1.6 nM | IC50 (Matrilysin): 0.78 nM

CNC(=O)[C@@H](NC(=O)C(CC(C)C)C(O)C(=O)NO)C(C)(C)C (single isomer, unassigned)
bioavailability [3]: 15% | half-life [4]: 27 h

CC(C)CC(C(=O)N[C@H](C(=O)c1c[nH]c2ccccc12)C(C)(C)C)C(O)C(=O)NO (single isomer, unassigned)
bioavailability [3]: 10% | half-life [4]: 12 h | IC50 (Interstitial collagenase): 0.26 nM | IC50 [1]: 0.38 nM | IC50 (Matrilysin): 0.3 nM

C=CCC(C(=O)NO)C(CC(C)C)C(=O)N[C@@H](Cc1ccccc1)C(=O)c1ccc[nH]1 (single isomer, unassigned)
IC50 (Interstitial collagenase): 2.6 nM | IC50 [1]: 1.1 nM | IC50 (Matrilysin): 1.2 nM

C=CCC(C(=O)NO)C(CC(C)C)C(=O)N[C@@H](Cc1ccccc1)C(=O)c1cc[nH]c1 (single isomer, unassigned)
IC50 (Interstitial collagenase): 6.2 nM | IC50 [1]: 2.7 nM | IC50 (Stromelysin-1 [2]): 6.6 nM | IC50 (Matrilysin): 8 nM

C=CCC(C(=O)NO)C(CC(C)C)C(=O)N[C@@H](Cc1ccccc1)C(=O)c1cccs1 (single isomer, unassigned)
IC50 [1]: 6.5 nM | IC50 (Stromelysin-1 [2]): 3.2 nM | IC50 (Matrilysin): 13 nM

C=CCC(C(=O)NO)C(CC(C)C)C(=O)N[C@@H](Cc1ccccc1)C(=O)c1ncco1 (single isomer, unassigned)
IC50 (Interstitial collagenase): 2.7 nM | IC50 [1]: 7.2 nM | IC50 (Stromelysin-1 [2]): 1.8 nM | IC50 (Matrilysin): 4.2 nM

C=CCC(C(=O)NO)C(CC(C)C)C(=O)N[C@@H](Cc1ccccc1)C(=O)NC (single isomer, unassigned)
bioavailability [7]: 0% | half-life [8]: 0.35 h | IC50 (Matrilysin): 11 nM

CC(C)CC(C(=O)N[C@@H](Cc1ccccc1)C(=O)c1c[nH]c2ccccc12)C(O)C(=O)NO (single isomer, unassigned)
IC50 (Interstitial collagenase): 5 nM | IC50 [1]: 0.6 nM | IC50 (Matrilysin): 1.1 nM

C=CCC(C(=O)NO)C(CC(C)C)C(=O)N[C@@H](Cc1ccccc1)C(=O)c1c[nH]c2ccccc12 (single isomer, unassigned)
bioavailability [9]: 12% | bioavailability [7]: 7% | half-life [4]: 20 h | half-life [10]: 1.45 h

CNC(=O)[C@H](Cc1ccccc1)NC(=O)[C@H](CC(C)C)[C@H](CSc1cccs1)C(=O)NO [BATIMASTAT]
IC50 (Matrilysin): 2.4 nM
